{
  "source": "patent US8361780B2",
  "about": "“Biological system and assay for identifying modulators of tubulin ligases” (University of Georgia Research Foundation, Inc., priority 2005, dated 2013)",
  "key": {"zebrafish embryos [1]": {"test_system": "zebrafish embryos", "experiment": "Heart position in zebrafish embryos, in situ hybridization", "type": "in vivo", "text": "(§1) MO Knockdowns in Zebrafish Embryos. TTLL3-ATG MO (5′ […] 3′; SEQ ID NO:129) and TTLL3-SP MO (5′ […] 3; SEQ ID NO:130) were obtained from Open Biosystems (Huntsville, AL). TTLL3-ATG targets the translation initiation site of ttll3 mRNA. TTLL3-SP is predicted to prevent splicing of exon 11 and cause a frame shift in exon 12. This would eliminate the coding sequence downstream of exon 10, which includes a conserved catalytic domain-encoding region. To evaluate the effect of TTLL3-SP on ttll3 mRNA, total RNA was isolated with TRIzol reagent (Invitrogen, Inc., Carlsbad, Calif.) from embryos at 7 hpf: 50 uninjected control embryos, 40 embryos injected with 3 ng TTLL3-SP MO, or 30 embryos injected with 5 ng TTLL3-SP MO. Total RNA ([…]) was used as a template for cDNA synthesis with random hexamers and oligo-dT primers and the iScript TM cDNA synthesis kit (Bio-Rad Laboratories, Hercules, Calif.). cDNA ([…]) was amplified with the following primers spanning exon 11: TTLL3-splice F, 5′-[…]-3′ (exon 10; SEQ ID NO:131); TTLL3-splice R, 5′-[…]-3′ (exon 12; SEQ ID NO:132). As expected, primers flanking exon 11 produced a shorter product in RT-PCR from embryos injected with TTLL3-SP than in controls (FIG. 50D). […] As a negative control, we injected 25 base MOs with a random base mixture at each position (Gene Tools, Inc., Philomath, Oreg.).\n(§2) Microscopy of Zebrafish. For whole-mount, in situ hybridization, embryos were fixed as previously described (Hagos and Dougan, 2007), stored in 100% methanol at −20° C., and stained with spaw, lefty1, lefty2, and cmlc2 probes (Yelon, 2001). Embryos were photographed under differential interference contrast with a Zeiss Axioplan 2 microscope with Slidebook (Intelligent Imaging Innovations, Denver, Colo.). For immunofluorescence, the embryos were manually dechorionated and fixed with 0.5% Triton X-100 and 4% paraformaldehyde in PBT (0.1% Tween-20 in PBS) at 4° C. overnight. After washing with PBT, embryos were dehydrated in methanol/PBT series and incubated overnight in 100% methanol at −20° C. After rehydration, embryos were blocked for 1-2 hr in 2% BSA, 0.5% normal goat serum,l%DMSO, 0.5% Triton X-100 in PBS, and incubated overnight at 4° C. with one of the following antibodies: 6-11 B-1 (1:1000); TAP952 (1:2000); AXO49 (1:2000); and GT335 (1:1000); polyE (1:500). After washing 3×10 min with 0.5% Triton X-100 in PBS, embryos were incubated overnight at 4° C. in anti-mouse-IgG-FITC or anti-rabbit-IgG-Cy3 (1:500; Zymed), washed (3×10 min), mounted in 100 mg/ml of DABCO (Sigma-Aldrich) in PBS, and examined on a Leica TCS SP confocal microscope."}, "zebrafish embryos [2]": {"test_system": "zebrafish embryos", "experiment": "Tubulin monoglycylation in cilia of zebrafish embryos (TAP952 immunofluorescence)", "type": "in vivo", "settings": "72 hpf; TTLL3-ATG MO 1 ng, TTLL3-SP MO 3 ng", "text": "as §1, §2"}, "zebrafish embryos [3]": {"test_system": "zebrafish embryos", "experiment": "Expression pattern of southpaw in zebrafish embryos (in situ hybridization)", "type": "in vivo", "text": "as §1, §2"}, "zebrafish embryos [4]": {"test_system": "zebrafish embryos", "experiment": "Expression pattern of lefty2 in zebrafish embryos (in situ hybridization)", "type": "in vivo", "text": "as §1, §2"}, "zebrafish embryos [5]": {"test_system": "zebrafish embryos", "experiment": "Heart position in zebrafish embryos, scoring live embryos", "type": "in vivo", "text": "as §1"}, "zebrafish embryos [6]": {"test_system": "zebrafish embryos", "experiment": "Morphology of zebrafish morphant embryos", "settings": "in vivo", "text": "as §1"}, "ttll3 mRNA": {"test_system": "ttll3 mRNA", "experiment": "RT-PCR assay for TTLL3 mRNA in injected zebrafish embryos", "type": "in vivo", "settings": "embryos at 7 hpf, 3 or 5 ng", "text": "as §1"}},
  "data": [
    {"substance": "TTLL3-SP-MO: antisense morpholino 5′ GATGTACAGAGCTGAGATTGAAAAG 3; blocks splicing at the intron 10/exon 11 junction of ttll3 mRNA (all phosphorodiamidate morpholino (PMO))", "values": [
      {"measurement": "heart position left, number of embryos", "setting": "zebrafish embryos [1]", "result": 23},
      {"measurement": "heart position left, percent of embryos", "setting": "zebrafish embryos [1]", "result": 57.5, "unit": "%"},
      {"measurement": "heart position middle, number of embryos", "setting": "zebrafish embryos [1]", "result": 6},
      {"measurement": "heart position middle, percent of embryos", "setting": "zebrafish embryos [1]", "result": 15, "unit": "%"},
      {"measurement": "heart position right, number of embryos", "setting": "zebrafish embryos [1]", "result": 11},
      {"measurement": "heart position right, percent of embryos", "setting": "zebrafish embryos [1]", "result": "(27.5%)"},
      {"measurement": "levels of tubulin monoglycylation/glycylation in cilia", "setting": "zebrafish embryos [2]", "result": "reduced"},
      {"measurement": "southpaw expression: Bilatera or midline, number of embryos", "setting": "zebrafish embryos [3]", "result": 22},
      {"measurement": "southpaw expression: Bilatera or midline, percent of embryos", "setting": "zebrafish embryos [3]", "result": "(53.7%)"},
      {"measurement": "southpaw expression: No specific signal, number of embryos", "setting": "zebrafish embryos [3]", "result": 6},
      {"measurement": "southpaw expression: No specific signal, percent of embryos", "setting": "zebrafish embryos [3]", "result": "(14.6%)"},
      {"measurement": "southpaw expression: left, number of embryos", "setting": "zebrafish embryos [3]", "result": 12},
      {"measurement": "southpaw expression: left, percent of embryos", "setting": "zebrafish embryos [3]", "result": "(29.3%)"},
      {"measurement": "southpaw expression: right, number of embryos", "setting": "zebrafish embryos [3]", "result": 1},
      {"measurement": "southpaw expression: right, percent of embryos", "setting": "zebrafish embryos [3]", "result": "(2.4%)"},
      {"measurement": "lefty2 expression: Bilatera or midline, number of embryos", "setting": "zebrafish embryos [4]", "result": 2},
      {"measurement": "lefty2 expression: Bilatera or midline, percent of embryos", "setting": "zebrafish embryos [4]", "result": "(4.8%)"},
      {"measurement": "lefty2 expression: No specific signal, number of embryos", "setting": "zebrafish embryos [4]", "result": 16},
      {"measurement": "lefty2 expression: No specific signal, percent of embryos", "setting": "zebrafish embryos [4]", "result": "(38.1%)"},
      {"measurement": "lefty2 expression: left, number of embryos", "setting": "zebrafish embryos [4]", "result": 21},
      {"measurement": "lefty2 expression: left, percent of embryos", "setting": "zebrafish embryos [4]", "result": "(50%)"},
      {"measurement": "lefty2 expression: right, number of embryos", "setting": "zebrafish embryos [4]", "result": 3},
      {"measurement": "lefty2 expression: right, percent of embryos", "setting": "zebrafish embryos [4]", "result": "(7.1%)"},
      {"measurement": "heart position left, number of embryos", "setting": "zebrafish embryos [5]", "result": 21},
      {"measurement": "heart position left, percent of embryos", "setting": "zebrafish embryos [5]", "result": 64, "unit": "%"},
      {"measurement": "heart position middle, number of embryos", "setting": "zebrafish embryos [5]", "result": 8},
      {"measurement": "heart position middle, percent of embryos", "setting": "zebrafish embryos [5]", "result": 24, "unit": "%"},
      {"measurement": "heart position right, number of embryos", "setting": "zebrafish embryos [5]", "result": 4},
      {"measurement": "heart position right, percent of embryos", "setting": "zebrafish embryos [5]", "result": "(12%)"},
      {"measurement": "hydrocephalic morphants", "setting": "zebrafish embryos [6]", "result": 81, "unit": "%"},
      {"measurement": "morphant embryos with curly tail", "setting": "zebrafish embryos [6]", "result": 64.3, "unit": "%"},
      {"measurement": "levels of endogenous TTLL3 mRNA", "setting": "ttll3 mRNA", "result": "dramatic reduction"}
    ]}
  ]
}
